Assay results published in patent US20200079773A1, “CARBOXYLIC ACID DERIVATIVES OF PYRIDOQUINAZOLINES USEFUL AS PROTEIN KINASE INHIBITORS” (ONCOSTELLAE, S.L., priority 2017, published 2020).

What was measured:
Format in all cases: biochemical
JAK1 = molecular target: T1, JAK1 (Homo sapiens, UniProt P23458); assay: Functional assay of protein kinases (Caliper mobility shift), JAK1; conditions: ATP 100 μM, 150 min incubation
T1 construct: purchased Carna Biosciences 08-144
Description: (§1) Functional Assays of Protein Kinases
(§2) The functional assays of protein kinases were carried out in 384-well plates using a final volume of 30 μl. […] The reaction was reads in a “Caliper EzReader LabChip 3000” (Caliper, Hopkinton, Mass.) reader, based on electrophoretic mobility of the fluorescent substrate and the phosphorylated product.
(§3) The inhibition percentages were calculated by comparison between control reactions, for 100% of inhibition and reactions with only DMSO for 0% of inhibition.

JAK2 = molecular target: T2, JAK2 (Homo sapiens, UniProt O60674); assay: Functional assay of protein kinases (Caliper mobility shift), JAK2; conditions: ATP 300 μM, 30 min incubation
T2 construct: purchased Carna Biosciences 08-045
T2 sequence (O60674 826-1132 limits assumed): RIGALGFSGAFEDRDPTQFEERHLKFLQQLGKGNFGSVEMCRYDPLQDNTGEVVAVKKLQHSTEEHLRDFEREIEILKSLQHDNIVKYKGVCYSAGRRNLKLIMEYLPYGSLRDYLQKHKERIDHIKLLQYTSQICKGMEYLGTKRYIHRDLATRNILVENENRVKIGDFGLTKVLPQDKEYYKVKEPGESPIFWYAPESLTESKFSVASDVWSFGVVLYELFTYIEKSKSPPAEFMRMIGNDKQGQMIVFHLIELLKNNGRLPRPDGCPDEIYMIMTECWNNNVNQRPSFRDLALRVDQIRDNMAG
Description: as §1, §2, §3

JAK3 = molecular target: T3, JAK3 (Homo sapiens, UniProt P52333); assay: Functional assay of protein kinases (Caliper mobility shift), JAK3; conditions: ATP 8 μM, 30 min incubation
T3 construct: purchased Carna Biosciences 08-046
T3 sequence (P52333 795-1124 limits assumed): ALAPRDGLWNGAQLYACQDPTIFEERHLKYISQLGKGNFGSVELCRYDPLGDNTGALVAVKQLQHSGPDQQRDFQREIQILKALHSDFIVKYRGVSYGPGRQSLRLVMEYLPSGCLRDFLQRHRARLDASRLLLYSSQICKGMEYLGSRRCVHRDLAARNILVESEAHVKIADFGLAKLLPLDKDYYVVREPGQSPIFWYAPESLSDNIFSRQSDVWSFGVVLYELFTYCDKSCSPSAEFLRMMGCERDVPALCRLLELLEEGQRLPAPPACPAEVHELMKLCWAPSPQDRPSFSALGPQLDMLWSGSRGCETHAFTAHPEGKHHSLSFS
Description: as §1, §2, §3

TYK2 = molecular target: T4, TYK2 (Homo sapiens, UniProt P29597); assay: Functional assay of protein kinases (Caliper mobility shift), TYK2; conditions: ATP 20 μM, 45 min incubation
T4 construct: purchased Carna Biosciences 08-147
T4 sequence (P29597 871-1187 limits assumed): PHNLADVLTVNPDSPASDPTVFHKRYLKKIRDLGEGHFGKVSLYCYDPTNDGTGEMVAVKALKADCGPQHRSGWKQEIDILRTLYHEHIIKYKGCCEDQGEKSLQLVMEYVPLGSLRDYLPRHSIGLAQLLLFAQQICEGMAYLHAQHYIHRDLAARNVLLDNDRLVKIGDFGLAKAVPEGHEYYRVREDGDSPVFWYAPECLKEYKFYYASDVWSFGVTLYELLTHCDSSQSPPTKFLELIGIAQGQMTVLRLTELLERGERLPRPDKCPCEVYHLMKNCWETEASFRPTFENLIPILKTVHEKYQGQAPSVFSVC
Description: as §1, §2, §3

T1 sequence (P23458 850-1154 limits assumed): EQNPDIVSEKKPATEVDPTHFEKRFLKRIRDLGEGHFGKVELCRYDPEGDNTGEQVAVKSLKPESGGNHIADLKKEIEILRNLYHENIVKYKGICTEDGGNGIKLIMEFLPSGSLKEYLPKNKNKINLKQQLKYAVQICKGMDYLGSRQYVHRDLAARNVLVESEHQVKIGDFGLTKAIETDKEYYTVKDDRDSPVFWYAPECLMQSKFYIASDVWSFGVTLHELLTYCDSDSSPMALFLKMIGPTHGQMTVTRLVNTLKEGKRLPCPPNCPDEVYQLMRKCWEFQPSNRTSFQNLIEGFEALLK

SMILES | IC50 (JAK1) | IC50 (JAK2) | IC50 (JAK3) | IC50 (TYK2)
O=C(NC1CCC(C(=O)O)CC1)c1cccn2c(=O)c3cc(C4CC4)ccc3nc12 (stereo not drawn) [Example 1, 4-(2-cyclpropyl-11-oxo-11H-pyrido[2,1-b]quinazoline-6-carboxamido)cyclohexane-1-carboxylic acid] | ≥ 1000 nM | ≥ 1000 nM | < 100 nM | –
O=C(NC1CCC(C(=O)O)CC1)c1cccn2c(=O)c3cc(C4CC4)ccc3nc12 [Example 4, (1R,4R)-4-(2-cyclopropyl-11-oxo-11H-pyrido[2,1-b]quinazoline-6-carboxamido)cyclohexane-1-carboxylic acid] | ≥ 1000 nM | ≥ 1000 nM | 100 to 1000 nM | ≥ 1000 nM
O=C(NC12CCC(C(=O)O)(CC1)C2)c1cccn2c(=O)c3cc(C4CC4)ccc3nc12 [Example 7, 4-(2-cyclpropyl-11-oxo-11H-pyrido[2,1-b]quinazoline-6-carboxamido)bicyclo[2.2.1]heptane-1-carboxylic acid] | ≥ 1000 nM | ≥ 1000 nM | 100 to 1000 nM | 100 to 1000 nM
Cc1cc(C(=O)N[C@H]2CC[C@@H](C(=O)O)CC2)c2nc3ccccc3c(=O)n2c1 [Example 11, (1S,4S)-4-(8-methyl-11-oxo-11H-pyrido[2,1-b]quinazoline-6-carboxamido)cyclohexane-1-carboxylic acid] | ≥ 1000 nM | ≥ 1000 nM | ≥ 1000 nM | 100 to 1000 nM
O=C(NC1CCC(C(=O)O)CC1)c1cccn2c(=O)c3ccccc3nc12 (stereo not drawn) [Example 12, 4-(11-oxo-11H-pyrido[2,1-b]quinazoline-6-carboxamido)cyclohexane-1-carboxylic acid] | ≥ 1000 nM | ≥ 1000 nM | 100 to 1000 nM | 100 to 1000 nM
O=C(NC1CCC(C(=O)O)CC1)c1cccn2c(=O)c3cc(O)ccc3nc12 (stereo not drawn) [Example 19, 4-(2-hydroxy-11-oxo-11H-pyrido[2,1-b]quinazoline-6-carboxamido)cyclohexane-1-carboxylic acid] | – | – | 100 to 1000 nM | 100 to 1000 nM
O=C(N[C@H]1CC[C@H](C(=O)O)CC1)c1cccn2c(=O)c3cc(-c4ccncc4)ccc3nc12 [Example 35, (trans)-4-(11-oxo-2-(pyridin-4-yl)-11H-pyrido[2,1-b]quinazoline-6-carboxamido)cyclohexane-1-carboxylic acid] | – | – | 100 to 1000 nM | ≥ 1000 nM
O=C(N[C@H]1CC[C@@H](C(=O)O)CC1)c1cc(Br)cn2c(=O)c3ccccc3nc12 [Example 40, (cis)-4-(8-bromo-11-oxo-11H-pyrido[2,1-b]quinazoline-6-carboxamido)cyclohexane-1-carboxylic acid] | – | – | 100 to 1000 nM | < 100 nM
O=C(NC1CC(C(=O)O)C1)c1cccn2c(=O)c3cc(C4CC4)ccc3nc12 (stereo not drawn) [Example 41, 3-(2-cyclopropyl-11-oxo-11H-pyrido[2,1-b]quinazoline-6-carboxamido)cyclobutane-1-carboxylic acid] | – | – | 100 to 1000 nM | 100 to 1000 nM
NC(=O)c1ccc(-c2ccc3nc4c(C(=O)N[C@H]5CC[C@@H](C(=O)O)CC5)cccn4c(=O)c3c2)s1 [Example 43, (1S,4S)-4-(2-(5-carbamoylthiophen-2-yl)-11-oxo-11H-pyrido[2,1-b]quinazoline-6-carboxamido)cyclohexane-1-carboxylic acid] | – | – | < 100 nM | < 100 nM
Cn1cnc(-c2ccc3nc4c(C(=O)N[C@H]5CC[C@@H](C(=O)O)CC5)cccn4c(=O)c3c2)c1 [Example 44, (1S,4S)-4-(2-(1-methyl-1H-Imidazol-4-yl)-11-oxo-11H-pyrido[2,1-b]quinazoline-6-carboxamido)cyclohexane-1-carboxylic acid] | – | – | < 100 nM | < 100 nM
O=C(N[C@H]1CC[C@@H](C(=O)O)CC1)c1cccn2c(=O)c3cc(-c4ccc(C5CC5)s4)ccc3nc12 [Example 45, (1S,4S)-4-(2-(5-cyclpropylthiophen-2-yl)-11-oxo-11H-pyrido[2,1-b]quinazoline-6-carboxamido)cyclohexane-1-carboxylic acid] | – | – | < 100 nM | < 100 nM
O=C(O)c1ccc(-c2ccc3nc4c(C(=O)N[C@H]5CC[C@@H](C(=O)O)CC5)cccn4c(=O)c3c2)s1 [Example 47, 5-(6-(((1s,4s)-4-carboxycyclohexyl)carbamoyl)-11-oxo-11H-pyrido[2,1-b]quinazolin-2-yl)thiophene-2-carboxylic acid] | – | – | < 100 nM | < 100 nM

Next, values leading:

IC50 (JAK1) | IC50 (JAK2) | IC50 (JAK3) | IC50 (TYK2) | SMILES
– | – | < 100 nM | < 100 nM | Cc1ccc(-c2ccc3nc4c(C(=O)N[C@H]5CC[C@@H](C(=O)O)CC5)cccn4c(=O)c3c2)s1 [Example 2, (1S,4S)-4-(2-(5-methylthiophen-2-yl)-11-oxo-11H-pyrido[2,1-b]quinazoline-6 carboxamido)cyclohexane-1-carboxylic acid]
≥ 1000 nM | ≥ 1000 nM | < 100 nM | < 100 nM | O=C(N[C@H]1CC[C@@H](C(=O)O)CC1)c1cccn2c(=O)c3cc(-c4ccccc4)ccc3nc12 [Example 15, (1S,4S)-4-(11-oxo-2-phenyl-11H-pyrido[2,1-b]quinazoline-6-carboxamido)cyclohexane-1-carboxylic acid]
– | – | < 100 nM | < 100 nM | O=C(N[C@H]1CC[C@@H](C(=O)O)CC1)c1cccn2c(=O)c3cc(-c4cccc(F)c4)ccc3nc12 [Example 29, (cis)-4-(2-(3-fluorophenyl)-11-oxo-11H-pyrido[2,1-b]quinazoline-6-carboxamido)cyclohexane-1-carboxylic acid]
– | – | < 100 nM | < 100 nM | O=C(N[C@H]1CC[C@@H](C(=O)O)CC1)c1cccn2c(=O)c3cc(-c4ccc(F)c(F)c4)ccc3nc12 [Example 30, (cis)-4-(2-(3,4-difluorophenyl)-11-oxo-11H-pyrido[2,1-b]quinazoline-6-carboxamido)cyclohexane-1-carboxylic acid]
– | – | < 100 nM | < 100 nM | N#Cc1ccc(-c2ccc3nc4c(C(=O)N[C@H]5CC[C@@H](C(=O)O)CC5)cccn4c(=O)c3c2)cc1 [Example 31, (cis)-4-(2-(4-cyanophenyl)-11-oxo-11H-pyrido[2,1-b]quinazoline-6-carboxamido)cyclohexane-1-carboxylic acid]
– | – | < 100 nM | < 100 nM | N#Cc1cccc(-c2ccc3nc4c(C(=O)N[C@H]5CC[C@@H](C(=O)O)CC5)cccn4c(=O)c3c2)c1 [Example 32, (cis)-4-(2-(3-cyanophenyl)-11-oxo-11H-pyrido[2,1-b]quinazoline-6-carboxamido)cyclohexane-1-carboxylic acid]
– | – | < 100 nM | < 100 nM | O=C(O)c1ccc(-c2ccc3nc4c(C(=O)N[C@H]5CC[C@@H](C(=O)O)CC5)cccn4c(=O)c3c2)cc1 [Example 33, 4-(6-(((cis)-4-carboxycyclohexyl)carbamoyl)-11-oxo-11H-pyrido[2,1-b]quinazolin-2-yl)benzoic acid]
– | – | < 100 nM | < 100 nM | O=C(N[C@H]1CC[C@@H](C(=O)O)CC1)c1cccn2c(=O)c3cc(-c4cccnc4)ccc3nc12 [Example 34, (cis)-4-(11-oxo-2-(pyridin-3-yl)-11H-pyrido[2,1-b]quinazoline-6-carboxamido)cyclohexane-1-carboxylic acid]
– | – | < 100 nM | 100 to 1000 nM | O=C(N[C@H]1CC[C@@H](C(=O)O)CC1)c1cccn2c(=O)c3cc(-c4ccncc4F)ccc3nc12 [Example 36, (cis)-4-(2-(3-fluoropyridin-4-yl)-11-oxo-11H-pyrido[2,1-b]quinazoline-6-carboxamido)cyclohexane-1-carboxylic acid]
– | – | < 100 nM | 100 to 1000 nM | O=C(N[C@H]1CC[C@@H](C(=O)O)CC1)c1cccn2c(=O)c3cc(-c4cncnc4)ccc3nc12 [Example 37, (cis)-4-(11-oxo-2-(pyrimidin-5-yl)-11H-pyrido[2,1-b]quinazoline-6-carboxamido)cyclohexane-1-carboxylic acid]
– | – | < 100 nM | < 100 nM | Cn1cc(-c2ccc3nc4c(C(=O)N[C@H]5CC[C@@H](C(=O)O)CC5)cccn4c(=O)c3c2)cn1 [Example 38, (cis)-4-(2-(1-methyl-1H-pyrazol-4-yl)-11-oxo-11H-pyrido[2,1-b]quinazoline-6-carboxamido)cyclohexane-1-carboxylic acid]
– | – | < 100 nM | < 100 nM | O=C(N[C@H]1CC[C@@H](C(=O)O)CC1)c1cccn2c(=O)c3cc(-c4cccs4)ccc3nc12 [Example 39, (cis)-4-(11-oxo-2-(thiophen-2-yl)-11H-pyrido[2,1-b]quinazoline-6-carboxamido)cyclohexane-1-carboxylic acid]
– | – | < 100 nM | < 100 nM | N#Cc1ccc(-c2ccc3nc4c(C(=O)N[C@H]5CC[C@@H](C(=O)O)CC5)cccn4c(=O)c3c2)s1 [Example 42, (1S,4S)-4-(2-(5-cyanothiophen-2-yl)-11-oxo-11H-pyrido[2,1-b]quinazoline-6-carboxamido)cyclohexane-1-carboxylic acid]
